These compounds were tested against T1, KRAS G12C 1-169, his-tagged protein, GDP-loaded (Homo sapiens, UniProt P01116, G12C) (assay: Biochemical assay: covalent modification of KRAS G12C measured by mass spectrometry (RapidFire/TOF or Q-Exactive)). Details: covalent binding to (modification of) KRAS G12C after a ten minute incubation period.
T1 construct: KRAS G12C 1-169, his-tagged protein, GDP-loaded
Assay type: binding
Method in brief: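 Intact-mass readout (TOF or Q-Exactive, charge-envelope deconvolution) gives percent covalent adduct from modified and unmodified species. Compound at 10, 30 or 100 μM was incubated at room temperature for 10 min to 24 h with 2 μM or 0.5 μM GDP-bound KRAS G12C 1-169 in Hepes/NaCl/MgCl2 buffer, then acid-quenched.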
In the case of `C=CC(=O)N1C[C@H](C)N(c2nc(N3CC(N(C)C)C3)nc3c(F)c(-c4c(F)ccc5cnn(C6CC6)c45)c(Cl)cc23)C[C@H]1C` [Compound 200, 1-((2R,5S)-4-(6-chloro-7-(1-cyclopropyl-6-fluoro-1H-indazol-7-yl)-2-(3-(dimethylamino)azetidin-1-yl)-8-fluoroquinazolin-4-yl)-2,5-dimethylpiperazin-1-yl)prop-2-en-1-one], the Binding % was “+ (+ indicates binding activity greater than 0% and up to 50%)”.
`C=CC(=O)N1C[C@H](C)N(c2nc(N3CC(N(C)C)C3)nc3c(F)c(-c4c(C)ccc5ccn(C)c45)c(Cl)cc23)C[C@H]1C` [Compound 202, 1-((2R,5S)-4-((S)-6-chloro-7-(1,6-dimethyl-1H-indol-7-yl)-2-(3-(dimethylamino)azetidin-1-yl)-8-fluoroquinazolin-4-yl)-2,5-dimethylpiperazin-1-yl)prop-2-en-1-one] was tested, and the Binding % was “+ (+ indicates binding activity greater than 0% and up to 50%)”.
With `C=CC(=O)N1C[C@H](C)N(c2nc(N3CC(N(C)C)C3)nc3c(F)c(-c4c(C)ccc5ccn(C)c45)c(Cl)cc23)C[C@H]1C` [Compound 203, 1-((2R,5S)-4-((R)-6 chloro-7-(1,6-dimethyl-1H-indol-7-yl)-2-(3-(dimethylamino)azetidin-1-yl)-8-fluoroquinazolin-4-yl)-2,5-dimethylpiperazin-1-yl)prop-2-en-1-one] the Binding % was “+++ (+++ indicates binding activity greater than 80%)”.
For `C=CC(=O)N1C[C@H](C)N(c2nc(OCC(C)(C)N(C)C)nc3c(F)c(-c4c(C)ccc5cnn(C)c45)c(Cl)cc23)C[C@H]1C` [Compound 205, 1-((2R,5S)-4-(6-chloro-7-(1,6-dimethyl-1H-indazol-7-yl)-2-(2-(dimethylamino)-2-methylpropoxy)-8-fluoroquinazolin-4-yl)-2,5-dimethylpiperazin-1-yl)prop-2-en-1-one], the Binding % was “+++ (+++ indicates binding activity greater than 80%)”.
With `C=CC(=O)N1C[C@H](C)N(c2nc(N3CC(NC)C3)nc3c(F)c(-c4c(C)ccc5[nH]nc(C6CC6)c45)c(Cl)cc23)C[C@H]1C` [Compound 209, 1-((2R,5S)-4-((R)-6-chloro-7-(3-cyclopropyl-5-methyl-1H-indazol-4-yl)-8-fluoro-2-(3-(methylamino)azetidin-1-yl)quinazolin-4-yl)-2,5-dimethylpiperazin-1-yl)prop-2-en-1-one] the Binding % was “+++ (+++ indicates binding activity greater than 80%)”.
With `[2H]C([2H])([2H])N(C1CN(c2nc(N3C[C@@H](C)N(C(=O)C=C)C[C@@H]3C)c3cc(Cl)c(-c4c(C)ccc5cnn(C6CC6)c45)c(F)c3n2)C1)C([2H])([2H])[2H]` [Compound 213, 1-((2R,5S)-4-((S)-6-chloro-7-(1-cyclopropyl-6-methyl-1H-indazol-7-yl)-2-(3-(di-perdeuteromethylamino)azetidin-1-yl)-8-fluoroquinazolin-4-yl)-2,5-dimethylpiperazin-1-yl)prop-2-en-1-one] the Binding % was “+ (+ indicates binding activity greater than 0% and up to 50%)”.
With `[2H]C([2H])([2H])N(C1CN(c2nc(N3C[C@@H](C)N(C(=O)C=C)C[C@@H]3C)c3cc(Cl)c(-c4c(C)ccc5cnn(C6CC6)c45)c(F)c3n2)C1)C([2H])([2H])[2H]` [Compound 214, 1-((2R,5S)-4-((R)-6-chloro-7-(1-cyclopropyl-6-methyl-1H-indazol-7-yl)-2-(3-(di-perdeuteromethylamino)azetidin-1-yl)-8-fluoroquinazolin-4-yl)-2,5-dimethylpiperazin-1-yl)prop-2-en-1-one] the Binding % was “+++ (+++ indicates binding activity greater than 80%)”.
In the case of `C=CC(=O)N1C[C@H](C)N(c2nc(OCC(C)(C)N(C)C)nc3c(F)c(-c4c(C)ccc5cnn(C6CC6)c45)c(Cl)cc23)C[C@H]1C` [Compound 215, 1-((2R,5S)-4-(6-chloro-7-(1-cyclopropyl-6-methyl-1H-indazol-7-yl)-2-(2-(dimethylamino)-2-methylpropoxy)-8-fluoroquinazolin-4-yl)-2,5-dimethylpiperazin-1-yl)prop-2-en-1-one], the Binding % was “+++ (+++ indicates binding activity greater than 80%)”.
`C=CC(=O)N1C[C@H](C)N(c2nc(OC3CCOC3)nc3c(F)c(-c4c(C)ccc5cnn(C)c45)c(Cl)cc23)C[C@H]1C` (stereo partly drawn) [Compound 216, 1-((2R,5S)-4-(6-chloro-7-(1,6-dimethyl-1H-indazol-7-yl)-8-fluoro-2-(tetrahydrofuran-3-yloxy)quinazolin-4-yl)-2,5-dimethylpiperazin-1-yl)prop-2-en-1-one] was tested, and the Binding % was “++ (++ indicates binding activity from 50 to 80%)”.
In the case of `C=CC(=O)N1C[C@H](C)N(c2nc(OC3CCCOC3)nc3c(F)c(-c4c(C)ccc5cnn(C)c45)c(Cl)cc23)C[C@H]1C` (stereo partly drawn) [Compound 225, 1-((2R,5S)-4-(6-chloro-7-(1,6-dimethyl-1H-indazol-7-yl)-8-fluoro-2-(tetrahydro-2H-pyran-3-yloxy)quinazolin-4-yl)-2,5-dimethylpiperazin-1-yl)prop-2-en-1-one], the Binding % was “++ (++ indicates binding activity from 50 to 80%)”.
For `C=CC(=O)N1C[C@H](C)N(c2nc(OCC(C)(C)N(C)C)nc3c(F)c(-c4c(C)ccc5[nH]nc(C)c45)c(Cl)cc23)C[C@H]1C` [Compound 226, 1-((2R,5S)-4-(6-chloro-7-(3,5-dimethyl-1H-indazol-4-yl)-2-(2-(dimethylamino)-2-methylpropoxy)-8-fluoroquinazolin-4-yl)-2,5-dimethylpiperazin-1-yl)prop-2-en-1-one], the Binding % was “++ (++ indicates binding activity from 50 to 80%)”.
`C=CC(=O)N1C[C@H](C)N(c2nc(N3CC(N(C)C)C3)nc3c(F)c(-c4c(F)ccc5ccn(C)c45)c(Cl)cc23)C[C@H]1C` [Compound 229, 1-((2R,5S)-4-(6-chloro-2-(3-(dimethylamino)azetidin-1-yl)-8-fluoro-7-(6-fluoro-1-methyl-1H-indol-7-yl)quinazolin-4-yl)-2,5-dimethylpiperazin-1-yl)prop-2-en-1-one] was tested, and the Binding % was “+++ (+++ indicates binding activity greater than 80%)”.
`C=CC(=O)N1C[C@H](C)N(c2nc(O[C@H](C)CN(C)C)nc3c(F)c(-c4c(C)ccc5cnn(C)c45)c(Cl)cc23)C[C@H]1C` [Compound 230, 1-((2R,5S)-4-(6-chloro-7-(1,6-dimethyl-1H-indazol-7-yl)-2-((R)-1-(dimethylamino)propan-2-yloxy)-8-fluoroquinazolin-4-yl)-2,5-dimethylpiperazin-1-yl)prop-2-en-1-one] was tested, and the Binding % was “++ (++ indicates binding activity from 50 to 80%)”.
For `C=CC(=O)N1C[C@H](C)N(c2nc(O[C@H](C)CN(C)C)nc3c(F)c(-c4c(C)ccc5[nH]nc(C6CC6)c45)c(Cl)cc23)C[C@H]1C` [Compound 231, 1-((2R,5S)-4-(6-chloro-7-(3-cyclopropyl-5-methyl-1H-indazol-4-yl)-2-((R)-1-(dimethylamino)propan-2-yloxy)-8-fluoroquinazolin-4-yl)-2,5-dimethylpiperazin-1-yl)prop-2-en-1-one], the Binding % was “++ (++ indicates binding activity from 50 to 80%)”.
In the case of `C=CC(=O)N1C[C@H](C)N(c2nc(O[C@H](C)CN(C)C)nc3c(F)c(-c4c(C)ccc5[nH]nc(C)c45)c(Cl)cc23)C[C@H]1C` [Compound 232, 1-((2R,5S)-4-(6-chloro-7-(3,5-dimethyl-1H-indazol-4-yl)-2-((R)-1-(dimethylamino)propan-2-yloxy)-8-fluoroquinazolin-4-yl)-2,5-dimethylpiperazin-1-yl)prop-2-en-1-one], the Binding % was “++ (++ indicates binding activity from 50 to 80%)”.
`C=CC(=O)N1C[C@H](C)N(c2nc(C#CCN(C)C)nc3c(F)c(-c4c(C)ccc5cnn(C)c45)c(Cl)cc23)C[C@H]1C` [Compound 233, 1-((2R,5S)-4-(6-chloro-7-(1,6-dimethyl-1H-indazol-7-yl)-2-(3-(dimethylamino)prop-1-ynyl)-8-fluoroquinazolin-4-yl)-2,5-dimethylpiperazin-1-yl)prop-2-en-1-one] was tested, and the Binding % was “+++ (+++ indicates binding activity greater than 80%)”.
With `C=CC(=O)N1C[C@H](C)N(c2nc(OC[C@@H]3CCCN3C(C)C)nc3c(F)c(-c4c(C)ccc5[nH]nc(C6CC6)c45)c(Cl)cc23)C[C@H]1C` [Compound 237, 1-((2R,5S)-4-(6-chloro-7-(3-cyclopropyl-5-methyl-1H-indazol-4-yl)-8-fluoro-2-(((S)-1-isopropylpyrrolidin-2-yl)methoxy)quinazolin-4-yl)-2,5-dimethylpiperazin-1-yl)prop-2-en-1-one] the Binding % was “++ (++ indicates binding activity from 50 to 80%)”.
`C=CC(=O)N1C[C@H](C)N(c2nc(OC[C@@H]3CCCN3C(C)C)nc3c(F)c(-c4c(C)ccc5cnn(C)c45)c(Cl)cc23)C[C@H]1C` [Compound 238, 1-((2R,5S)-4-(6-chloro-7-(1,6-dimethyl-1H-indazol-7-yl)-8-fluoro-2-(((S)-1-isopropylpyrrolidin-2-yl)methoxy)quinazolin-4-yl)-2,5-dimethylpiperazin-1-yl)prop-2-en-1-one] was tested, and the Binding % was “++ (++ indicates binding activity from 50 to 80%)”.
`C=CC(=O)N1C[C@H](C)N(c2nc(OC[C@@H]3CCCN3CC3CC3)nc3c(F)c(-c4c(C)ccc5cnn(C)c45)c(Cl)cc23)C[C@H]1C` [Compound 239, 1-((2R,5S)-4-(6-chloro-2-(((S)-1-(cyclopropylmeth-yl)pyrrolidin-2-yl)methoxy)-7-(1,6-dimethyl-1H-indazol-7-yl)-8-fluoroquinazolin-4-yl)-2,5-dimethylpiperazin-1-yl)prop-2-en-1-one] was tested, and the Binding % was “+++ (+++ indicates binding activity greater than 80%)”.
With `C=CC(=O)N1C[C@H](C)N(c2nc(C#CCN(C)C)nc3c(F)c(-c4c(C)ccc5[nH]nc(C6CC6)c45)c(Cl)cc23)C[C@H]1C` [Compound 240, 1-((2R,5S)-4-(6-chloro-7-(3-cyclopropyl-5-methyl-1H-indazol-4-yl)-2-(3-(dimethylamino)prop-1-ylnyl)-8-fluoroquinazolin-4-yl)-2,5-dimethylpiperazin-1-yl)prop-2-en-1-one] the Binding % was “+ (+ indicates binding activity greater than 0% and up to 50%)”.

— patent publication US11377441B2, “Covalent inhibitors of KRAS” (Araxes Pharma LLC, priority 2017, dated 2022)
